The text below walks through data of patent US20260216196A1, “IMIDAZO[1,2-A]PYRIDINE AND IMIDAZO[1,2-A]PYRAZINE DERIVATIVES AS MLLT1 AND MLLT3 INHIBITORS” (DARK BLUE THERAPEUTICS LTD., priority 2022, published 2026).

Experiment [1] concerns the target MLLT3 (Homo sapiens, UniProt P42568). The experiment is described as follows: HTRF IC50 determination assay, MLLT3 / H3K9cro peptide displacement. The settings on record: MLLT3 assay IC50 (nM), 6His tagged MLLT3, biotinylated H3K9cro peptide, compound 20 μM to 20 nM, 11 data points in duplicate.
For experiment [2], the target named is MLLT1 (Homo sapiens, UniProt Q03111). Nature of the experiment: biochemical. The settings on record: MLLT1 assay IC50 (nM), HTRF, 6His tagged MLLT1, biotinylated H3K9cro peptide; compound 20 μM to 20 nM, 11 data points in duplicate.
MLLT1, sequence (Q03111 whole entry): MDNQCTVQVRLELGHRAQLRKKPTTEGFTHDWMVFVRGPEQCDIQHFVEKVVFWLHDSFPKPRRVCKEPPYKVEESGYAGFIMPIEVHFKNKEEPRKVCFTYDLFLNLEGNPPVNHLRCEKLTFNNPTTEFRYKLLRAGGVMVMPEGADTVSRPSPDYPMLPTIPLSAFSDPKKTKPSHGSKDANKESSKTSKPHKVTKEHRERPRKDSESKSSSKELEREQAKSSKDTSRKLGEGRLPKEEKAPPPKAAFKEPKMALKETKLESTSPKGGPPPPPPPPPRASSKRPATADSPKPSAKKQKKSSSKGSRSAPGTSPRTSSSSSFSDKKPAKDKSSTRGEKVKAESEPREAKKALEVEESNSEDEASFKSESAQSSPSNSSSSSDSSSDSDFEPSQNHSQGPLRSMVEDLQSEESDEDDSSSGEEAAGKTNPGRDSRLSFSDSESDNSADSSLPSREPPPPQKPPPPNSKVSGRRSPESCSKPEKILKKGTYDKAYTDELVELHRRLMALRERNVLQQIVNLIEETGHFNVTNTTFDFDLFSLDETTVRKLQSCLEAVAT

Bounds are passed on as bounds.

MLLT3, sequence (P42568 whole entry): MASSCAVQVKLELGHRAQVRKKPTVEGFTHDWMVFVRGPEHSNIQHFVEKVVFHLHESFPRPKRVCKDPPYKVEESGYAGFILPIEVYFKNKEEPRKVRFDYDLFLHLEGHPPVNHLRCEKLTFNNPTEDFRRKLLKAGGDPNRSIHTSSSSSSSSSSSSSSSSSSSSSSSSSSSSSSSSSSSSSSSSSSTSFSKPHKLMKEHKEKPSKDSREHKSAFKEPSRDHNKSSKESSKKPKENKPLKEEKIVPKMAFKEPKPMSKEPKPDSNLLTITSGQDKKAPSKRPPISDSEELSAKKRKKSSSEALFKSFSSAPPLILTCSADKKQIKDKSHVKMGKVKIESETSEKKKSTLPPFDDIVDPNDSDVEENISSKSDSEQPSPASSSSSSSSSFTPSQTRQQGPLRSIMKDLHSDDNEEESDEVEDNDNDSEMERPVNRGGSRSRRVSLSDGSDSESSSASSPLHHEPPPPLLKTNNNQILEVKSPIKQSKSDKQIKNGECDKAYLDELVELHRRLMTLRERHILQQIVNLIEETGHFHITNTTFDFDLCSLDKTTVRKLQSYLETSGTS

As for `Cc1nc(-c2ccc(C(=O)Nc3ccc4nc(C5CCCN5C)cn4c3)cc2)cs1` (racemic) [Example 16, rac-4-(2-methyl-1,3-thiazol-4-yl)-N-[2-(1-methylpyrrolidin-2-yl)imidazo[1,2-a]pyridin-6-yl]benzamide], the IC50 in experiment [1] and in experiment [2] was 150 to 1500 nM each time.
Regarding `CN1CCCC1c1cn2cc(NC(=O)c3ccc4c(cnn4C)c3)ncc2n1` (racemic) [Example 68, rac-1-methyl-N-[2-(1-methylpyrrolidin-2-yl)imidazo[1,2-a]pyrazin-6-yl]-1H-indazole-5-carboxamide], the IC50 in experiment [1] and in experiment [2] was 150 to 1500 nM in each case.
Take `CN1CCCC1c1cn2cc(NC(=O)c3ccc(-c4cnccn4)cc3F)ccc2n1` (single isomer, unassigned) [Example 19]: the IC50 was in the range of 1500 to 20000 nM in experiment [1] and 150 to 1500 nM in experiment [2].
For `COCCN1CCCC1c1cn2cc(NC(=O)c3ccc4c(C)nn(C)c4c3)ccc2n1` (racemic) [Example 62, rac-N-{2-[1-(2-methoxyethyl)pyrrolidin-2-yl]imidazo[1,2-a]pyridin-6-yl}-1,3-dimethyl-1H-indazole-6-carboxamide], in that order: 1500 to 20000 nM and 1500 to 20000 nM.
In the case of `CN1CCCC1c1cn2cc(NC(=O)c3cnc(-c4ccccc4)o3)ccc2n1` (racemic) [Example 46, rac-N-[2-(1-methylpyrrolidin-2-yl)imidazo[1,2-a]pyridin-6-yl]-2-phenyl-1,3-oxazole-5-carboxamide], the IC50 in experiment [1] and in experiment [2] was 1500 to 20000 nM each time.
In the case of `CCN1CCCC1c1cn2cc(NC(=O)c3ccc4c(C)nn(C)c4c3)ncc2n1` (single isomer, unassigned) [Example 88, N-{2-[(rel-2S)-1-ethylpyrrolidin-2-yl]imidazo[1,2-a]pyrazin-6-yl}-1,3-dimethylindazole-6-carboxamide], the concentration for half-maximal inhibition (IC50) in experiment [1] and in experiment [2] was 1500 to 20000 nM in each case.
With `CN1CCC[C@@H]1c1cn2cc(NC(=O)c3ccc4c(cnn4C)c3)nc(C3CC3)c2n1` [Example 99, N-[8-cyclopropyl-2-[(2R)-1-methylpyrrolidin-2-yl]imidazo[1,2-a]pyrazin-6-yl]-1-methyl-indazole-5-carboxamide], the figures for the IC50 in experiment [1] and in experiment [2] were 1500 to 20000 nM and 150 to 1500 nM, respectively.
On the same counts, the results for `CN1CCCC1c1cn2cc(NC(=O)c3cccc(-n4cccn4)c3)ccc2n1` (racemic) [Example 43, rac-N-[2-(1-methylpyrrolidin-2-yl)imidazo[1,2-a]pyridin-6-yl]-3-(1H-pyrazol-1-yl)benzamide] are 1500 to 20000 nM and 150 to 1500 nM.
On the same counts, the results for `COCCc1nn(C)c2ccc(C(=O)Nc3ccc4nc(C5CCCN5C)cn4c3)cc12` (racemic) [Example 49, rac-3-(2-methoxyethyl)-1-methyl-N-[2-(1-methylpyrrolidin-2-yl)imidazo[1,2-a]pyridin-6-yl]-1 H-indazole-5-carboxamide] are 150 to 1500 nM and 150 to 1500 nM.
On to `Cc1ncc(-c2ccc(F)c(C(=O)Nc3ccc4nc(C5CCCN5C)cn4c3)c2)s1` (single isomer, unassigned) [Example 23], for which the concentration for half-maximal inhibition (IC50) in experiment [1] and in experiment [2] was 150 to 1500 nM in each case.
In the case of `CC1CC(c2cn3cc(NC(=O)c4ccc5c(cnn5C)c4)ccc3n2)N(C)C1` (racemic) [Example 64, rac-N-[2-(1,4-dimethylpyrrolidin-2-yl)imidazo[1,2-a]pyridin-6-yl]-1-methyl-1H-indazole-5-carboxamide], the IC50 in experiment [1] and in experiment [2] was 150 to 1500 nM in each case.
Regarding `Cc1nn(C)c2ncc(C(=O)Nc3ccc4nc(C5CCCN5C)cn4c3)c(Cl)c12` (racemic) [Example 15, rac-4-chloro-1,3-dimethyl-N-[2-(1-methylpyrrolidin-2-yl)imidazo[1,2-a]pyridin-6-yl]-1H-pyrazolo[3,4-b]pyridine-5-carboxamide], the IC50 in experiment [1] and in experiment [2] was 1500 to 20000 nM in each case.
Consider `CN1CCCC1c1cn2cc(NC(=O)c3ccc(-c4ncccn4)cc3F)ccc2n1` (single isomer, unassigned) [Example 20], for which the IC50 in experiment [1] and in experiment [2] was 1500 to 20000 nM in each case.
As to `Cc1nn(C)c2cc(C(=O)Nc3cn4cc(C5CC(C(C)(C)C)CN5C)nc4cn3)ccc12` (racemic) [Example 84, rac-N-[2-(4-tert-butyl-1-methylpyrrolidin-2-yl)imidazo[1,2-a]pyrazin-6-yl]-1,3-dimethylindazole-6-carboxamide], the concentration for half-maximal inhibition (IC50) is 150 to 1500 nM in experiment [1] and below 150 nM in experiment [2].
As to `CN1CCCC1c1cn2cc(NC(=O)c3ccc4nc[nH]c4n3)ccc2n1` (racemic) [Example 36, rac-N-[2-(1-methylpyrrolidin-2-yl)imidazo[1,2-a]pyridin-6-yl]-3H-imidazo[4,5-b]pyridine-5-carboxamide], the figures for the IC50 in experiment [1] and in experiment [2] were above 20000 nM and 1500 to 20000 nM, respectively.
Turning to `COc1cc(NC(=O)c2ccc3c(C)nn(C)c3c2)cn2cc(C3CCCN3C)nc12` (racemic) [Example 1, rac-N-[8-methoxy-2-(1-methylpyrrolidin-2-yl)imidazo[1,2-a]pyridin-6-yl]-1,3-dimethyl-indazole-6-carboxamide], the IC50 in experiment [1] and in experiment [2] was 150 to 1500 nM in each case.
With `CN1C2CCCCC2C[C@@H]1c1cn2cc(NC(=O)c3ccc4c(cnn4C)c3)ccc2n1` (stereo partly drawn) [Example 58, 1-methyl-N-{2-[(2R)-1-methyl-octahydro-1H-indol-2-yl]imidazo[1,2-a]pyridin-6-yl}-1H-indazole-5-carboxamide], the IC50 in experiment [1] and in experiment [2] was 150 to 1500 nM in each case.
In the case of `CN1CCCC1c1cn2cc(NC(=O)c3ccc(-c4cncs4)cc3F)ccc2n1` (single isomer, unassigned) [Example 8], the IC50 in experiment [1] and in experiment [2] was 150 to 1500 nM in each case.
For `CN1C[C@H](F)C[C@@H]1c1cn2cc(NC(=O)c3ccc4c(cnn4C)c3)ncc2n1` [Example 105, N-(2-((2R,4R)-4-fluoro-1-methylpyrrolidin-2-yl)imidazo[1,2-a]pyrazin-6-yl)-1-methyl-1H-indazole-5-carboxamide], the 50% inhibitory concentration (IC50) in experiment [1] and in experiment [2] was 150 to 1500 nM in each case.
For the molecule `CN1CCCC1c1cn2cc(NC(=O)c3ccc4c(c3)c(C3CCCC3)nn4C)ccc2n1` (racemic) [Example 48, rac-3-cyclopentyl-1-methyl-N-[2-(1-methylpyrrolidin-2-yl)imidazo[1,2-a]pyridin-6-yl]-1H-indazole-5-carboxamide], the IC50 in experiment [1] and in experiment [2] was 150 to 1500 nM throughout.
Regarding `CN1CCC[C@@H]1c1cn2cc(NC(=O)c3ccc4nnn(C)c4c3)ncc2n1` [Example 97, 3-methyl-N-{2-[(2R)-1-methylpyrrolidin-2-yl]imidazo[1,2-a]pyrazin-6-yl}-1,2,3-benzotriazole-5-carboxamide], the 50% inhibitory concentration (IC50) in experiment [1] and in experiment [2] was 150 to 1500 nM each time.
On to `CN1CCCC1c1cn2cc(NC(=O)c3ccc4scnc4c3)ccc2n1` (stereo not shown) [Example 41], for which the IC50 in experiment [1] and in experiment [2] was 150 to 1500 nM throughout.
`CN1CCCC1c1cn2cc(NC(=O)c3ccc(Cn4cccn4)cc3)ccc2n1` (racemic) [Example 42, rac-N-[2-(1-methylpyrrolidin-2-yl)imidazo[1,2-a]pyridin-6-yl]-4-[(1H-pyrazol-1-yl)methyl]benzamide]: the values for the IC50 in experiment [1] and in experiment [2] were 1500 to 20000 nM and 150 to 1500 nM, respectively.

As usually defined, the IC50 is the midpoint of a concentration-inhibition curve.
